Results as given in PubChem BioAssay AID1963836 (Molecular Pharmacology Branch, DTP, NCI, 2024).

Tested on: 857933-349-R-J2-PDC complex spheroid viability
Experiment: Anticancer human tumor 857933-349-R-J2-PDC patient-derived colon adenocarcinoma cell line growth inhibition [POLQ]
Conditions: for IC50: curve of first compound; for viability, T/C: stronger effect = lower value
How it was run: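 Three-cell-type spheroids modelling solid tumor plus stroma served as the readout system; POL inhibitors were tested individually and in combination, concentration ranges set by clinical Cmax where known.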

[1] = second compound 0.0316 µM, first compound 0.0316 µM
[2] = second compound 0.0316 µM, first compound 0.1 µM
[3] = second compound 0.0316 µM, first compound 0.316 µM
[4] = second compound 0.0316 µM, first compound 1 µM
[5] = second compound 0.0316 µM, first compound 3.16 µM
[6] = second compound 0.0316 µM, first compound 10 µM
[7] = second compound 0.1 µM, first compound 0.0316 µM
[8] = second compound 0.1 µM, first compound 0.1 µM
[9] = second compound 0.1 µM, first compound 0.316 µM
[10] = second compound 0.1 µM, first compound 1 µM
[11] = second compound 0.1 µM, first compound 3.16 µM
[12] = second compound 0.1 µM, first compound 10 µM
[13] = second compound 0.316 µM, first compound 0.0316 µM
[14] = second compound 0.316 µM, first compound 0.1 µM
[15] = second compound 0.316 µM, first compound 0.316 µM
[16] = second compound 0.316 µM, first compound 1 µM
[17] = second compound 0.316 µM, first compound 3.16 µM
[18] = second compound 0.316 µM, first compound 10 µM
[19] = second compound 1 µM, first compound 0.0316 µM
[20] = second compound 1 µM, first compound 0.1 µM
[21] = second compound 1 µM, first compound 0.316 µM
[22] = second compound 1 µM, first compound 1 µM
[23] = second compound 1 µM, first compound 3.16 µM
[24] = second compound 1 µM, first compound 10 µM
[25] = second compound 3.16 µM, first compound 0.0316 µM
[26] = second compound 3.16 µM, first compound 0.1 µM
[27] = second compound 3.16 µM, first compound 0.316 µM
[28] = second compound 3.16 µM, first compound 1 µM
[29] = second compound 3.16 µM, first compound 3.16 µM
[30] = second compound 3.16 µM, first compound 10 µM
[31] = second compound 10 µM, first compound 0.0316 µM
[32] = second compound 10 µM, first compound 0.1 µM
[33] = second compound 10 µM, first compound 0.316 µM
[34] = second compound 10 µM, first compound 1 µM
[35] = second compound 10 µM, first compound 3.16 µM
[36] = second compound 10 µM, first compound 10 µM
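Further: spheroids exposed to compounds for seven days before readout.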

C=CC(=O)N1CCN(c2nc(=O)n(-c3c(C)ccnc3C(C)C)c3nc(-c4c(O)cccc4F)c(F)cc23)C(C)C1 (stereo unspecified) + COC1C(OC(N)=O)C(O)C(Oc2ccc3c(O)c(NC(=O)c4ccc(O)c(CC=C(C)C)c4)c(=O)oc3c2C)OC1(C)C
IC50 (second compound 0.0316 µM): > 10 µM
IC50 (second compound 0.1 µM): > 10 µM
IC50 (second compound 0.316 µM): > 10 µM
IC50 (second compound 1 µM): > 10 µM
IC50 (second compound 3.16 µM): > 10 µM
IC50 (second compound 10 µM): > 10 µM
viability, T/C [1]: 105%
viability, T/C [2]: 104%
viability, T/C [3]: 103%
viability, T/C [4]: 107%
viability, T/C [5]: 88.5%
viability, T/C [6]: 102%
viability, T/C [7]: 94.4%
viability, T/C [8]: 88.7%
viability, T/C [9]: 79.5%
viability, T/C [10]: 110%
viability, T/C [11]: 104%
viability, T/C [12]: 77%
viability, T/C [13]: 96.1%
viability, T/C [14]: 110%
viability, T/C [15]: 102%
viability, T/C [16]: 98.2%
viability, T/C [17]: 100%
viability, T/C [18]: 74.9%
viability, T/C [19]: 101%
viability, T/C [20]: 108%
viability, T/C [21]: 81.3%
viability, T/C [22]: 109%
viability, T/C [23]: 99.2%
viability, T/C [24]: 93.3%
viability, T/C [25]: 98.1%
viability, T/C [26]: 116%
viability, T/C [27]: 126%
viability, T/C [28]: 99.3%
viability, T/C [29]: 111%
viability, T/C [30]: 71.4%
viability, T/C [31]: 104%
viability, T/C [32]: 73%
viability, T/C [33]: 118%
viability, T/C [34]: 97.4%
viability, T/C [35]: 82.2%
viability, T/C [36]: 99.8%

CC(C)n1c(=O)n(C)c2cnc3cc(F)c(-c4ccc(OCCCN5CCCCC5)nc4)cc3c21 + COC1C(OC(N)=O)C(O)C(Oc2ccc3c(O)c(NC(=O)c4ccc(O)c(CC=C(C)C)c4)c(=O)oc3c2C)OC1(C)C
IC50 (second compound 0.0316 µM): > 10 µM
IC50 (second compound 0.1 µM): > 10 µM
IC50 (second compound 0.316 µM): > 10 µM
IC50 (second compound 1 µM): > 10 µM
IC50 (second compound 3.16 µM): > 10 µM
IC50 (second compound 10 µM): > 10 µM
viability, T/C [1]: 102%
viability, T/C [2]: 108%
viability, T/C [3]: 97.3%
viability, T/C [4]: 105%
viability, T/C [5]: 109%
viability, T/C [6]: 111%
viability, T/C [7]: 113%
viability, T/C [8]: 118%
viability, T/C [9]: 100%
viability, T/C [10]: 95%
viability, T/C [11]: 121%
viability, T/C [12]: 100%
viability, T/C [13]: 87.2%
viability, T/C [14]: 120%
viability, T/C [15]: 93.1%
viability, T/C [16]: 85.1%
viability, T/C [17]: 84.1%
viability, T/C [18]: 105%
viability, T/C [19]: 74.4%
viability, T/C [20]: 110%
viability, T/C [21]: 103%
viability, T/C [22]: 98.3%
viability, T/C [23]: 87.8%
viability, T/C [24]: 122%
viability, T/C [25]: 110%
viability, T/C [26]: 112%
viability, T/C [27]: 111%
viability, T/C [28]: 89%
viability, T/C [29]: 122%
viability, T/C [30]: 123%
viability, T/C [31]: 89.6%
viability, T/C [32]: 115%
viability, T/C [33]: 106%
viability, T/C [34]: 104%
viability, T/C [35]: 85.7%
viability, T/C [36]: 114%

CC1COCCN1c1cc(-c2ccnn2C)c2ccnc(-c3ccn[nH]3)c2n1 (stereo unspecified) + COC1C(OC(N)=O)C(O)C(Oc2ccc3c(O)c(NC(=O)c4ccc(O)c(CC=C(C)C)c4)c(=O)oc3c2C)OC1(C)C
IC50 (second compound 0.0316 µM): 0.209 µM
IC50 (second compound 0.1 µM): 0.282 µM
IC50 (second compound 0.316 µM): 0.157 µM
IC50 (second compound 1 µM): 0.257 µM
IC50 (second compound 3.16 µM): 0.17 µM
IC50 (second compound 10 µM): 0.311 µM
viability, T/C [1]: 89.2%
viability, T/C [2]: 66.2%
viability, T/C [3]: 40.3%
viability, T/C [4]: 35.8%
viability, T/C [5]: 39.2%
viability, T/C [6]: 48.6%
viability, T/C [7]: 80.3%
viability, T/C [8]: 77.6%
viability, T/C [9]: 47.2%
viability, T/C [10]: 30.7%
viability, T/C [11]: 41.6%
viability, T/C [12]: 52.8%
viability, T/C [13]: 71.9%
viability, T/C [14]: 55.7%
viability, T/C [15]: 41.2%
viability, T/C [16]: 37.1%
viability, T/C [17]: 34.2%
viability, T/C [18]: 51.7%
viability, T/C [19]: 58.1%
viability, T/C [20]: 73.3%
viability, T/C [21]: 46.4%
viability, T/C [22]: 33.6%
viability, T/C [23]: 56.2%
viability, T/C [24]: 50%
viability, T/C [25]: 76.4%
viability, T/C [26]: 57.5%
viability, T/C [27]: 40.6%
viability, T/C [28]: 37%
viability, T/C [29]: 38%
viability, T/C [30]: 48.7%
viability, T/C [31]: 65.2%
viability, T/C [32]: 63.2%
viability, T/C [33]: 50.1%
viability, T/C [34]: 39.2%
viability, T/C [35]: 49.1%
viability, T/C [36]: 50.3%
